Several values for one entry are separate records, joined by “and”; a condition that tells them apart may be missing. Equal entries are not always repeated.
What was measured:
[1] = system: Proteus mirabilis (Gram-negative); assay: Bacterial translocation from the gut into organs: P. mirabilis; assay type: in vivo; conditions: Withanone 2 mg/kg; positive/6 mice
Procedure: (§1) Peritoneal inflammation was induced by Zymosan A (Sigma Chemical) (Masashi et al. Zymosan, but Not Lipopolysaccharide, Triggers Severe and Progressive Peritoneal Injury Accompanied by complement Activation in a Rat Peritonitis Model) was prepared freshly in sterile, 0.9% w/v saline, and 0.5 ml was injected i.p. from day 0 to Day 5. The lymphocyte population in the peripheral blood was determined with a flow cytometer. Cells were phenotyped by flow cytometry with the following primary antibodies: CD4 (FITC) and CD8 (PE). Cells were gated broadly on all live lymphocyte cells, with only debris and multiple cell clusters being excluded. Analysis of mean fluorescence intensity was done and percentage cell population was evaluated. The test drugs were administered for 30 days after the induction of peritonitis. On 36th day the peritoneal cavity was lavaged with 1.5 ml saline, and after a 30-s gentle manual massage, 0.5 ml exudate was retrieved, centrifuged at 3000 g for 3 min, and frozen at 220° C. prior to cytokine and chemotactic-factor assessment.
(§2) Intestine serves as a barrier in preventing gut bacteria and/or endotoxin from spreading to organs and tissues. It is also known that bacterial translocation occurs in critically ill or immunocompromised patients, and the physical disruption of mucosal barrier in vivo rodent models seem to be a key factor Tor translocation (Deitch et al. Effect of hemorrhagic shock on bacterial translocation, intestinal morphology, and intestinal permeability in conventional and antibiotic-decontaminated rats; Critical Care Medicine; 1990 18(5)). Bacterial translocation from the gut into the peritoneal cavity and organs was analyzed. The mesenteric lymph nodes, liver, and spleen of mice, study group of 30, were removed using sterile instruments. The organs were then homogenized in 1 ml of sterile cooked meat broth and 50 μl of organ homogenate was spread on blood agar plates to detect aerobic bacteria and Eosin Methylene blue agar plates to detect specially for E. coli. These plates were then incubated at 37° C. for 2 days. […]

gut bacteria = assay: Bacterial translocation from the gut into organs: total of study group of 30; assay type: in vivo; conditions: Withanone 2 mg/kg; positive/30 mice
Procedure: as §1, §2

[2] = system: polymorphonuclear leukocytes, macrophages, lymphocytes; assay: Zymosan A induced peritonitis, acute study: intraperitoneal cellular influx; assay type: in vivo, BALB/c male mice; conditions: 2 mg/kg p.o (of 0.5, 1, 2, 4 mg/kg); 4, 12, 24 and 48 hrs after Zymosan A i.p.
Procedure: Peritoneal inflammation was induced according to Doherty et al. in BALB/c male mice aged 6-8 weeks. Zymosan A (Sigma Chemical) was prepared freshly (2 mg/ml) in sterile, 0.9% w/v saline, and 0.5 ml was injected i.p. Zymosan A is a cell wall component of fungus, caused proliferative peritonitis with severe accumulation of inflammatory cells. At the selected time points 4, 12, 24 and 48 hrs, the peritoneal cavity was lavaged with 1.5 ml saline, and after a 30-s gentle manual massage, 0.5 ml exudate was retrieved, centrifuged at 3000 g for 3 min. 0.5 ml exudate was collected and used freshly for cell counts.

C3b = assay: Complement activation product C3b in serum (ELISA), chronic zymosan peritonitis; assay type: in vivo, mouse; conditions: 2 mg/kg
Procedure: as §1
Complement activation is a system of more than 30 proteins in the plasma and on cell surfaces. The activation takes place by three pathways, classical, lectin, and alternative. […]

CD8+ T cells = assay: Zymosan peritonitis chronic study: peripheral blood CD8+ T cell population (flow cytometry); assay type: in vivo, mouse; conditions: Withanone 2 mg/kg, day 36
Procedure: as §1, with “On 36th day the peritoneal cavity was lavaged with 1.5 ml saline, and after a 30-s gentle manual massage, 0.5 ml exudate was retrieved, centrifuged at 3000 g for 3 min, and frozen at 220° C. prior to cytokine and chemotactic-factor assessment.” left out
Flow cytometry enables the characterization of cells and subcellular organelles on the basis of size and granularity and a number of different parameters defined by fluorescent probes. […] Fluorochrome labelled monoclonal antibodies directed against co-receptors CD4 and CD8 were used to quantify the lymphocyte subsets in a multiparametric flow cytometric assay. […]

SMILES: CC1=C(C)C(=O)O[C@@H]([C@@H](C)[C@@]2(O)CC[C@H]3[C@@H]4[C@@H]5O[C@@H]5[C@@]5(O)CC=CC(=O)[C@]5(C)[C@H]4CC[C@@]32C)C1 [Withanone]
- Bacterial translocation, Liver, p. mirabilis [1]: 0/6
- Bacterial translocation, Mesenteric Lymph Nodes, p. mirabilis [1]: 0/6
- Bacterial translocation, Spleen, p. mirabilis [1]: 0/6
- Bacterial translocation, Liver, total (gut bacteria): 3/30
- Bacterial translocation, Mesenteric Lymph Nodes, total (gut bacteria): 5 out of 30 and 5/30
- Bacterial translocation, Spleen, total (gut bacteria): 3/30
- Inhibition of intraperitoneal cellular influx [2]: maximum effect in inhibiting cellular influx
- Inhibition of complement activation product C3b compared to the Zymosan control (C3b): 44%
- Inhibition of CD8+ compared to T cell population of Zymosan control (CD8+ T cells): 44%
